Source: patent publication US20100204460A1, “NATURAL BRASSINOSTEROIDS FOR USE FOR TREATING HYPERPROLIFERATION, TREATING PROLIFERATIVE DISEASES AND REDUCING ADVERSE EFFECTS OF STEROID DYSFUNCTION IN MAMMALS, PHARMACEUTICAL COMPOSITION AND ITS USE” (priority 2007, published 2010)
Several values for one entry are separate records, joined by “and”; a condition that tells them apart may be missing. Equal entries are not always repeated.

Tests used:
Format in all cases: cell-based
DU-145 cells = assay: BrdU incorporation assay, DU-145
Method: To analyze if the inhibition in cell viability was due to decreased cell proliferation, we measured DNA synthesis in the presence of BRs. The effect of brassinosteroids 9 or 6 on cell proliferation and DNA replication of the cancer cells was measured by BrdU incorporation assay. This immunostaining was based on nuclear incorporation of bromodeoxyuridine (BrdU) into DNA in place of thymidine during the S-phase of cell cycle detected by anti-specific-BrdU antibody following membrane permeabilization as described previously (Gratzner, Science. 1982, 218, 474-475). […] The BrdU reagent (0.1 mM; Sigma, MO, USA) was added in culture medium with cells for 4 h in a CO2 incubator at 37° C. After incubation the cells were washed three times with PBS and fixed with cold acetone-methanol (1:1, v/v) for 10 min. The cells were denaturated by HCl (1:5; Lachema, Czech Republic) and incubated with anti-specific-BrdU antibody (diluted 1:100 in PBS; clone Bu20a, DakoCytomation, Denmark) for 60 min in the dark. The cells were then washed three times in PBS (10 mM, pH 7.4) and incubated with goat anti-mouse fluorescein isothiocyanate (FITC)-labeled secondary antibody (Sigma, MO, USA) for 60 min in the dark. The cells were then washed three times in PBS and incubated with DAPI (50 μg/mL; Sigma, MO, USA) for 10 min in the dark. The coverslips with cells were washed in deionized water and mounted on glass slides, using the hydrophilic medium Mowiol (Calbiochem, Calif., USA) in glycerol-PBS (1:3, v/v) for fluorescence. Cells were visualized using microscopy and those incorporating BrdU (S phase cells) were counted in at least 25 fields and compared with the total number of all cells.

[1] = tested on: MCF-7 (estrogen receptor-α-positive) breast cancer cell line; assay: MTT cytotoxicity test, MCF-7; conditions: 24 h, mean ± SD, read-out: IC50 determined by MTT cytotoxicity test
Method: 3-(4,5-Dimethylthiazol-2-yl)-2,5-diphenyltetrazolium bromide (MTT) was from Serva Electrophoresis (Heidelberg, Germany). Monoclonal mouse anti-bromodeoxyuridine (BrdU) intibody was obtained from DakoCytomation (Glostrup, Denmark). Calcein AM was obtained from PAA Laboratories GmbH (Pasching, Austria). […] All other cells were cultured in DMEM medium (Sigma, MO, USA). All used media were supplemented with 10% heat-inactivated fetal bovine serum, 2 mmol/L L-glutamine, 1% penicillin/streptomycin. The cell lines were maintained under standard cell culture conditions at 37° C. and 5% CO2 in a humid environment. Cells were subcultured twice or three times a week using the standard trypsinization procedure (Sigma, USA).
Cell viability in this case was assessed by 3-(4,5-dimethylthiozol-2-yl)-2,5-diphenyltetrazolium bromide (MTT) to determine IC50 concentrations of studied agents as described previously. […] The cells (70% to 80% confluent) were treated with brassinosteroids for 6, 12 and 24 h in cell culture medium. Cells that were used as controls were incubated with the maximum used amount of steroid diluent DMSO only. […] The absorbance was read using an ELISA reader Labsystem Multiscan RC at 570 nm. The viability of treated cells was related to the viability of control cells that represented 100% viability. […]

LNCaP cells [2] = assay: TUNEL detection of apoptosis, LNCaP; conditions: IC50 concentration
Method: TdT-Mediated dUTP nick end labeling (TUNEL) detection of apoptosis index. For detection of apoptotic cells, the TUNEL assay was used. […] After period of treatment, the cells were washed with PBS and fixed on the slides with cold acetone-methanol (1:1, v/v) for 10 min. Apoptosis-induced nuclear DNA fragmentation was detected by terminal deoxynucleotidyl transferase-mediated UTP nick end labeling (TUNEL) technique according to the producer protocol (In Situ Cell Death Detection Kit; Roche Diagnostics, Mannheim, Germany). The cells were then washed three times in PBS and stained with 4′-6-diamidino-2-phenylindole (DAPI; 50 μg/ml; Sigma, St. Louis, Mo., USA) for 10 min in the dark. The coverslips with cells were washed in deionized water and mounted on glass slides, using the hydrophilic medium Mowiol (Calbiochem, Fremont, Calif., USA) in glycerol-PBS (1:3, v/v) for fluorescence. Cells were visualized using fluorescence microscopy and compared with control cells. TUNEL staining achieved to confirm apoptosis in all cell lines.

LNCaP cells [3] = assay: Cell cycle distribution by flow cytometry, LNCaP; conditions: IC50, 24 h; for Apoptosis subG1 fraction: control 8%; for Cell cycle distribution S: control 14%; for Cell cycle distribution G2/M: control 16%; for Cell cycle distribution G1: control 70%
Description: In the MCF-7 breast cancer cell line that has been the most widely studied experimental cell system, the typical growth inhibitory response to antiestrogens is decrease in the proportion of cells synthesising DNA (S phase) after antiestrogen treatment. This decrease in S phase coincides with an increase in the proportion of cells in G0/G1 phase. The activity of the androgen receptor (AR) is also regulated by alterations in cell signaling. There has been reported ligand independent activation of AR in prostate cancer cells by different growth factors. As the AR can be activated in the absence of hormone, it appears that the conditions may be more restricted than those observed for ER. Use of physiologic doses of ligand (dihydrotestosterone, DHT) is of importance as the LNCaP cells proliferate only at DHT concentration of 10^−9 M or lower. […] In contrast to proliferation, transactivation of AR specific target genes (e.g. PSA) continues to increase with DHT doses of 10^−10 M and higher. It might be accepted for estrogen or androgen receptors as stronger cytotoxic activities of brassinosteroids 9 or 6 on hormone-sensitive (MCF-7, LNCaP) compared to hormone-insensitive (MDA-MB-468, DU-145) cell lines were found. Therefore we explored the possibility of cell cycle perturbation by BRs in different cancer cell lines. Flow cytometry was used to evaluate the number of cells in the particular phases of the cell cycle, including subG1 peak detection. Control and treated cells were washed twice with cold PBS and centrifuged at 360×g for 10 min at 4° C., and fixed with chilled ethanol (70%; v/v) by low-speeded vortexing. For detection of DNA content analysis, propidium iodide staining was used. The cells were analyzed using a FACSCalibur flow cytometer (BD Biosciences, San Jose, Calif.).
Flow-cytometric detection of apoptosis. Several studies have declared that the induction of apoptosis may be cell cycle-dependent. Therefore, in our next series of experiments, we tested if brassinosteroids 9 or 6 cause apoptosis of the breast and prostate cancer cells via cell cycle blockage. From this reason we carried out DNA cell cycle analysis by flow cytometry based on detection of endonucleolytic DNA degradation that results in extraction of low molecular weight DNA from the cells. […] The subG1 peak containing apoptotic bodies was however not observed in MCF-7 cells.

[4] = treated at IC50 for 6 h, control 51 ± 3.8
[5] = treated at IC50 for 12 h, control 54 ± 4.2
[6] = treated at IC50 for 24 h, control 56 ± 6.5

Compound | percentage of proliferating BrdU positive cells (DU-145 cells; [4]) | percentage of proliferating BrdU positive cells (DU-145 cells; [5]) | percentage of proliferating BrdU positive cells (DU-145 cells; [6]) | IC50 [1] | percentage of TUNEL positive cells (LNCaP cells [2]; 6 h, control 0.3 ± 0.6) | percentage of TUNEL positive cells (LNCaP cells [2]; 12 h, control 0.6 ± 0.6) | percentage of TUNEL positive cells (LNCaP cells [2]; 24 h, control 0.6 ± 0.6) | Apoptosis subG1 fraction (LNCaP cells [3]) | Cell cycle distribution S (LNCaP cells [3]) | Cell cycle distribution G2/M (LNCaP cells [3]) | Cell cycle distribution G1 (LNCaP cells [3])
CC[C@@H](C(C)C)[C@@H](O)[C@H](O)[C@@H](C)[C@H]1CC[C@H]2[C@@H]3CC(=O)[C@H]4C[C@H](O)[C@H](O)C[C@]4(C)[C@H]3CC[C@]12C [Brassinosteroid 9, 28-Homocastasterone] | 41 ± 4.5% | 36 ± 4.4 % | 38 ± 4.0 % | 40 ± 1.5 µM | 7.3 ± 2.1 % | 15.7 ± 2.5 % | 25.8% and 25.8 ± 2.5 % | 18% | 2% | 4% | 94%
CC(C)[C@@H](C)[C@@H](O)[C@H](O)[C@@H](C)[C@H]1CC[C@H]2[C@@H]3COC(=O)[C@H]4C[C@H](O)[C@H](O)C[C@]4(C)[C@H]3CC[C@]12C [Brassinosteroid 6, 24-Epibrassinolide] | 32 ± 3.8 % | 27 ± 5.3 % | 16 ± 1.5 % | 60 ± 1.8 µM | 10.7 ± 4.0 % | 12.2 ± 5.1 % | 21.9% and 21.9 ± 3.0 % | 47% | 5% | 9% | 86%
